Measurements from patent US20210113563A1, “4-(4-CYANO-2-THIOARYL)DIHYDROPYRIMIDINONES FOR TREATING CHRONIC WOUNDS” (pH Pharma Co., Ltd., priority 2015, published 2021).

How the values were obtained:
[1] = tested on: collagen (hydroxyproline); experiment: Hydroxyproline (HYP) assay in skin lesions of adriamycin-treated rats; type: in vivo, rat; details: 10 mg/kg BW o.d. p.o.
From the text: On day 2, 4, 7, 9, 11, 14, 16, 18, 21, 23, 25 and 28 • inhalation anesthesia: isoflurane, O2, N2O mixture • size measurement of the depot and photos Day 28 section • inhalation anesthesia: isoflurane, O2, N2O mixture under anesthesia and then dislocation of the cervical spine • size measurement of the depot and the incision wound and photos • Former depots were harvested by punch biopsies • Wound 1/custodian of any animal->in liquid N2 for peroxidase and elastase determination • Wound 2/custodian of any animal->in liquid N2 for Hydroxyproline determination • Wound 3/custodian of any animal->in formalin fixed for histological studies • Samples were stored for further procedures at −80° C.

[2] = tested on: collagen type I and collagen type III in ulcer tissue; experiment: Collagen type I and III in lesions of pressure-applied mouse skin, Sirius red staining; type: in vivo; details: for Collagen type I / Collagen type III: pressure-applied mouse skin, day 3 to 15, Sirius red
From the text: OBJECTIVE: Pressure ulcers (decubitus ulcers) represents a large subgroup of chronic wounds. They mainly affect aged or neurologically immobilized patients. Continuous pressure at discrete skin areas leads to long-lasting hard-to-heal ulcer wounds that are also characterized by neutrophil infiltration. The presented experiment was set up to mimic this condition by applying magnet-induced pressure onto mouse skin folds. Since the area of emerging wounds is variable in form and size, its usability as a readout parameter is technically limited.
METHODS: Magnet placement leads to wounds with dermal neutrophil infiltration and delayed wound healing. Three ischemia-reperfusion (IR) cycles (12 hours on, 12 hours off) were applied in each animal to initiate decubitus ulcer formation.
On day 0 (start of experiment), the mice were weighed and put in anesthesia using an isoflurane/O2/N2O mixture. Back and flank skin was shaven. Skin was moistened with tap water and depilated using Pilca cream. Skin was lifted at the back midline and one magnet was placed on each side of the skin fold so that they were exactly opposite to each other. The magnets were left in place for 12 hours, then taken off for 12 hours. This cycle was repeated three times in total.
After sacrificing (day 15) wounds were excised using a 10 mm punch scalpel.
To assess the content of collagen type I (mature form) and collagen type III (newly formed) in ulcer tissue, Sirius red staining was performed according to standard protocols.

SMILES: CC1=C(C#N)[C@@H](c2ccc(C#N)cc2S(C)(=O)=O)N(C)C(=O)N1c1cccc(C(F)(F)F)c1 [Example 5, (4 S)-4-[4-Cyano-2-(methylsulfonyl)phenyl]-3,6-dimethyl-2-oxo-1-[3-(trifluoromethyl)phenyl]-1,2,3,4-tetrahydropyrimidine-5-carbonitrile]
- Hydroxyproline [1]: 5169 (n = 10)
- Collagen type III in pressure-induced lesions (in words) ([2]; mice, after 12 days of treatment): significant increase of collagen type III
- Collagen type I ([2]; 1 mg/kg BW o.d.): 1.1
- Collagen type III ([2]; 1 mg/kg BW o.d.): 30.2
- Collagen type I ([2]; 10 mg/kg BW o.d.): 0.7
- Collagen type III ([2]; 10 mg/kg BW o.d.): 49.8
